Test system: a variety of test species
Assay: Post-emergence herbicidal activity (glasshouse, sprayed 8 days after sowing, evaluated after 13 days)
Format: in vivo
Conditions: scale 0-5
Method in brief: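 Damage was rated 0-5 (5 = total) 13 days after a post-emergence spray of acetone/water (50:50) plus 0.5% Tween 20 formulation. Plants were sprayed at 8 days' growth and kept at 24/16° C, 14 h light, 65% humidity, watered twice daily.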

Row | SMILES | Post-emergence herbicidal damage score, ABUTH (Abutilon theophrasti) (250 g/ha) | Post-emergence herbicidal damage score, ALOMY (Alopecurus myosuroides) (250 g/ha) | Post-emergence herbicidal damage score, AMARE (Amaranthus retroflexus) (250 g/ha) | Post-emergence herbicidal damage score, ECHCG (Echinochloa crus-galli) (250 g/ha) | Post-emergence herbicidal damage score, SETFA (Setaria faberi) (250 g/ha) | Post-emergence herbicidal damage score, ZEAMX (Zea mays) (250 g/ha) | Post-emergence herbicidal damage score, ABUTH (Abutilon theophrasti) (1000 g/ha) | Post-emergence herbicidal damage score, ALOMY (Alopecurus myosuroides) (1000 g/ha) | Post-emergence herbicidal damage score, AMARE (Amaranthus retroflexus) (1000 g/ha) | Post-emergence herbicidal damage score, ECHCG (Echinochloa crus-galli) (1000 g/ha) | Post-emergence herbicidal damage score, SETFA (Setaria faberi) (1000 g/ha) | Post-emergence herbicidal damage score, ZEAMX (Zea mays) (1000 g/ha)
1 | COC1=C(C)C(=O)N(c2cc(C(C)(C)C)n(C)n2)C1O (stereo not drawn) [Compound I2] | 5 | 4 | 5 | 3 | 4 | 1 | – | – | – | – | – | –
2 | COC1=C(C)C(=O)N(c2cc(C(F)(F)F)n(C)n2)C1O (stereo not drawn) [Compound I3] | – | – | – | – | – | – | 5 | 5 | 5 | 5 | 5 | 4
3 | COC1=C(C)C(=O)N(c2nn(C)c3c2CCC3(C)C)C1O (stereo not drawn) [Compound I4] | – | – | – | – | – | – | 5 | 5 | 5 | 5 | 5 | 3
4 | COC1=C(C)C(=O)N(c2cc3n(n2)CCCC3(C)C)C1O (stereo not drawn) [Compound I5] | – | – | – | – | – | – | 5 | 5 | 5 | 5 | 5 | 4
5 | COC1=C(Cl)C(O)N(c2cc(C(C)(C)C)n(C)n2)C1=O (stereo not drawn) [Compound J1, 1-(5-tert-butyl-1-methyl-pyrazol-3-yl)-3-chloro-2-hydroxy-4-methoxy-2H-pyrrol-5-one] | – | – | – | – | – | – | 5 | 5 | 5 | 5 | 5 | 3
